Among the test systems are SK-OV-3; NCI-H226; NCI-H460; OVCAR-8; HCC 2998; SNB-75; SK-MEL-28; SW-620; NCI/ADR-RES; RXF 393; HT-29; SN12C; SF-268; A498; U-251; CAKI-1; EKVX; TK-10.
Common to all, as to assay: DTP human tumour cell line panel, 48 h

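These data come from cells grown in 96-well plates and exposed to compound for 48 hours at five concentrations. Here, GI50 denotes the concentration required for 50% inhibition of growth.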 Calls of active or inactive are those of the source. No stated cut-off is given here; in the data, active = GI50 up to about 1.1 µM and inactive = higher.

Results on 9 molecules are retold here after ChEMBL document CHEMBL1201862, “PubChem BioAssay data set” (2004).

For the molecule `CSc1nc(-c2cc3c(c(SC)n2)CCC3)cc2c1CCC2`, the GI50 in the experiment on SK-OV-3, in the experiment with NCI-H226, in the experiment on NCI-H460, in the experiment with OVCAR-8, in the experiment on HCC 2998 and with SNB-75 was > 100 µM (inactive) in each case. The GI50 in the experiment with SK-MEL-28, with SW-620, in the experiment with NCI/ADR-RES, in the experiment on RXF 393, in the experiment on HT-29 and with SN12C was > 100 µM (inactive) in each case. Further, the GI50 in the experiment on SF-268, in the experiment on A498, in the experiment with U-251, in the experiment with CAKI-1, in the experiment on EKVX and with TK-10 was > 100 µM (inactive) each time.
As to `N=C(N)NCCCC(Nc1c2ccccc2nc2ccccc12)C(=O)O` (stereo unspecified), the GI50 with NCI-H226, in the experiment on NCI-H460, in the experiment on OVCAR-8, in the experiment on HCC 2998, with SNB-75 and with SK-MEL-28 was > 100 µM (inactive) throughout. Further, the GI50 in the experiment with SW-620, with RXF 393, in the experiment on HT-29, with SN12C, with SF-268 and in the experiment on U-251 was > 100 µM (inactive) in each case. Moreover, the GI50 was > 100 µM (inactive) in the experiment with CAKI-1, > 100 µM (inactive) in the experiment on EKVX and 53.7 µM (inactive) in the experiment on TK-10.
Consider `Cc1cc2c(=O)cc(-c3cccs3)oc2c(C(=O)O)c1C`, for which the GI50 is > 100 µM (inactive) with SK-OV-3; > 100 µM (inactive) in the experiment on NCI-H460; > 100 µM (inactive) in the experiment with OVCAR-8; > 100 µM (inactive) in the experiment with HCC 2998; 1.56 µM (inactive) in the experiment with SNB-75; > 100 µM (inactive) in the experiment on SK-MEL-28. Further, the GI50 was > 100 µM (inactive) with SW-620; > 100 µM (inactive) in the experiment with HT-29; > 100 µM (inactive) in the experiment with SN12C; 34.2 µM (inactive) with SF-268; > 100 µM (inactive) in the experiment with A498; > 100 µM (inactive) with U-251. Further, the GI50 with EKVX and in the experiment with TK-10 was > 100 µM (inactive) each time.
Consider `O=c1c2ccc(Cl)cc2oc2c(CNc3ccc(S(=O)(=O)Nc4ncccn4)cc3)cccc12`, for which the GI50 in the experiment on SK-OV-3, in the experiment with NCI-H226, with OVCAR-8, in the experiment on HCC 2998, in the experiment with SNB-75 and in the experiment on SK-MEL-28 was > 100 µM (inactive) throughout. Further, the GI50 in the experiment with SW-620, in the experiment on NCI/ADR-RES, in the experiment with HT-29, in the experiment with SN12C, with A498 and with U-251 was > 100 µM (inactive) in each case. The GI50 with CAKI-1, in the experiment with EKVX and in the experiment on TK-10 was > 100 µM (inactive) each time.
As to `CCOn1c(C2(CC3CCN(C(=O)c4ccccc4)CC3)OCCO2)cc2ccccc21`, the GI50 is 19.3 µM (inactive) with SK-OV-3; 0.084 µM (active) with NCI-H226; 14.1 µM (inactive) with NCI-H460; 14.3 µM (inactive) in the experiment on OVCAR-8; 16.5 µM (inactive) in the experiment on SNB-75; 13.2 µM (inactive) with SK-MEL-28. The GI50 is 15.8 µM (inactive) in the experiment with SW-620; 16.9 µM (inactive) in the experiment on NCI/ADR-RES; 17.4 µM (inactive) with RXF 393; 18.9 µM (inactive) with HT-29; 17.2 µM (inactive) in the experiment with SN12C; 19.3 µM (inactive) with SF-268. Also, the GI50 in the experiment with A498 is 12.9 µM (inactive); in the experiment on U-251, 16.3 µM (inactive); in the experiment with CAKI-1 it was 15.4 µM (inactive); in the experiment on EKVX, 20.8 µM (inactive); in the experiment on TK-10, 12.2 µM (inactive).
Consider `COc1ccc(C2=NN(C(=O)COc3ccc(Cl)cc3)C(O)(c3ccc(Cl)cc3)C2)cc1` (stereo unspecified), for which the GI50 with SK-OV-3, in the experiment with NCI-H226, with NCI-H460, in the experiment on OVCAR-8, in the experiment with HCC 2998 and in the experiment with SNB-75 was > 100 µM (inactive) throughout. For the same molecule, the GI50 in the experiment on SK-MEL-28, in the experiment on SW-620, with HT-29, with SN12C, in the experiment on SF-268 and in the experiment with U-251 was > 100 µM (inactive) throughout. Also, the GI50 in the experiment on CAKI-1 and in the experiment with TK-10 was > 100 µM (inactive) in each case.
`O=C(NNc1ccccc1)/C(=C/c1ccc2c(c1)OCO2)NC(=O)c1ccccc1`: the GI50 is > 100 µM (inactive) in the experiment with SK-OV-3; 96.2 µM (inactive) with NCI-H226; > 100 µM (inactive) in the experiment on NCI-H460; > 100 µM (inactive) with OVCAR-8; > 100 µM (inactive) in the experiment on HCC 2998; > 100 µM (inactive) in the experiment on SNB-75. The GI50 in the experiment on SK-MEL-28, in the experiment on RXF 393, with HT-29, in the experiment with SN12C, in the experiment with SF-268 and with A498 was > 100 µM (inactive) in each case. Further, the GI50 was 98.4 µM (inactive) in the experiment on U-251, > 100 µM (inactive) in the experiment on CAKI-1, > 100 µM (inactive) in the experiment with EKVX and > 100 µM (inactive) in the experiment with TK-10.
Take `O=C1Cc2c([nH]c3ccccc23)-c2ccccc2N1` [PAULLONE]: the GI50 is > 100 µM (inactive) with SK-OV-3; 27.8 µM (inactive) with NCI-H226; 34.7 µM (inactive) in the experiment on NCI-H460; 40.1 µM (inactive) in the experiment with OVCAR-8; 19.9 µM (inactive) in the experiment with HCC 2998; 19.8 µM (inactive) in the experiment on SNB-75. Moreover, the GI50 in the experiment with SK-MEL-28 is 48.8 µM (inactive); in the experiment with SW-620 it was 28.2 µM (inactive); in the experiment with RXF 393, 16.1 µM (inactive); in the experiment on HT-29, 26 µM (inactive); with SN12C, 38.2 µM (inactive); in the experiment with SF-268, 45.2 µM (inactive). Further, the GI50 in the experiment on A498 was 67.8 µM (inactive); in the experiment on U-251, 39.6 µM (inactive); with CAKI-1 it was 42.4 µM (inactive); with EKVX, 49.5 µM (inactive); in the experiment on TK-10 it was > 100 µM (inactive).
In the case of `Cc1cc(S(=O)(=O)N/C(=C(\C#N)C(=O)c2ccc(Cl)cc2)[n+]2ccc(N(C)C)cc2)c([S-])cc1Cl`, the GI50 with SK-OV-3 was 30.5 µM (inactive); with NCI-H226, > 100 µM (inactive); with NCI-H460, 42.6 µM (inactive); with OVCAR-8, > 100 µM (inactive); in the experiment with HCC 2998, 83 µM (inactive); in the experiment on SK-MEL-28, > 100 µM (inactive). The GI50 was 73.3 µM (inactive) in the experiment on NCI/ADR-RES; > 100 µM (inactive) with RXF 393; 30.1 µM (inactive) in the experiment with HT-29; > 100 µM (inactive) in the experiment on SN12C; 76.6 µM (inactive) in the experiment with SF-268; 12.3 µM (inactive) in the experiment on A498. Besides, the GI50 in the experiment on U-251 was > 100 µM (inactive); in the experiment with CAKI-1 it was > 100 µM (inactive); in the experiment on TK-10 it was 43.2 µM (inactive).
